Assay results from ChEMBL document CHEMBL4145634, “Discovery of Janus Kinase 2 (JAK2) and Histone Deacetylase (HDAC) Dual Inhibitors as a Novel Strategy for the Combinational Treatment of Leukemia and Invasive Fungal Infections” (J Med Chem, 2018).
Converted amounts (≈) assume the structure as drawn. The source made the active and inactive calls. The rule behind the calls is not given here.

Experiments:
Mus musculus [1] = assay: Protection against spleen enlargement in SCID mouse xenografted with human HEL cells at 10 mg/kg, ip qd; assay type: functional, organism-based
HL-60 [2] = assay: Antiproliferative activity against human HL60 cells after 48 hrs by CCK-8 assay; assay type: functional, cell-based; details: HL-60, 48 h
Candida albicans [3] = assay: Synergistic antifungal activity against FLC resistant Candida albicans 100 assessed as FIC index after 48 hrs by checkerboard microdilution method; assay type: functional
Candida albicans [4] = assay: Antifungal activity against FLC resistant Candida albicans 100 after 48 hrs in presence of fluconazol by checkerboard microdilution method; assay type: functional; details: Candida albicans, 100, 48 h
Candida albicans [5] = assay: microbe, parasite or virus in culture; assay type: functional; details: Candida albicans, 0710922, 48 h
Description: Antifungal activity against FLC resistant Candida albicans 0710922 after 48 hrs in presence of fluconazol by checkerboard microdilution method

Candida albicans [6] = assay: microbe, parasite or virus in culture; assay type: functional; details: Candida albicans, 100, 48 h
Description: Antifungal activity against FLC resistant Candida albicans 100 assessed as fluconazol MIC50 after 48 hrs by checkerboard microdilution method

Candida albicans [7] = assay: microbe, parasite or virus in culture; assay type: functional; details: Candida albicans, 0710922, 48 h; remark: listed apart in the source
Description: Antifungal activity against FLC resistant Candida albicans 0710922 assessed as fluconazol MIC50 after 48 hrs by checkerboard microdilution method

Candida albicans [8] = assay: Antifungal activity against FLC resistant Candida albicans 100 after 48 hrs by checkerboard microdilution method; assay type: functional; details: Candida albicans, 100, 48 h
Mus musculus [9] = assay: In vivo antifungal activity against FLC resistant Candida albicans 0304103 infected in ICR mouse assessed as mouse survival at 5 mg/kg, ip qd up to 20 days in co-treated with 1 mg/kg, ip qd fluconazol (reference value: 4.5 day); assay type: functional
Candida albicans [10] = assay: microbe, parasite or virus in culture; assay type: functional; details: Candida albicans, 0304103, 48 h
Description: Antifungal activity against FLC resistant Candida albicans 0304103 after 48 hrs by checkerboard microdilution method

Candida albicans [11] = assay: microbe, parasite or virus in culture; assay type: functional; details: Candida albicans, 0710922, 48 h; remark: listed apart in the source
Description: Antifungal activity against FLC resistant Candida albicans 0710922 after 48 hrs by checkerboard microdilution method

HEL [12] = assay: Induction of apoptosis in human HEL cells at 10 uM after 48 hrs by Annexin-V-FITC/propidium iodide staining based flow cytometry relative to control; assay type: functional
HEL [13] = assay: Antiproliferative activity against human HEL cells after 48 hrs by CCK-8 assay; assay type: functional, cell-based
K562 [14] = assay: Antiproliferative activity against human K562 cells after 48 hrs by CCK-8 assay; assay type: functional, cell-based; details: K562, 48 h
Candida albicans [15] = assay: microbe, parasite or virus in culture; assay type: functional; details: Candida albicans, 0304103, 48 h; remark: listed apart in the source
Description: Antifungal activity against FLC resistant Candida albicans 0304103 after 48 hrs in presence of fluconazol by checkerboard microdilution method

HEL [16] = assay: Antitumor activity in human HEL cells xenografted in SCID mouse assessed as mouse survival at 10 mg/kg, ip qd measured after 10 days; assay type: functional, organism-based
Candida albicans [17] = assay: microbe, parasite or virus in culture; assay type: functional; details: Candida albicans, 0304103, 48 h; remark: listed apart in the source
Description: Antifungal activity against FLC resistant Candida albicans 0304103 assessed as fluconazol MIC50 after 48 hrs by checkerboard microdilution method

Candida albicans [18] = assay: Synergistic antifungal activity against FLC resistant Candida albicans 0710922 assessed as FIC index after 48 hrs by checkerboard microdilution method; assay type: functional
Candida albicans [19] = assay: Synergistic antifungal activity against FLC resistant Candida albicans 0304103 assessed as FIC index after 48 hrs by checkerboard microdilution method; assay type: functional
HEL [20] = assay: Antitumor activity against human HEL cells xenografted in BALB/C nude mouse assessed as tumor growth inhibition at 10 mg/kg, ip bid treated for 21 consecutive days relative to control; assay type: functional; details: read-out: TGI
Mus musculus [21] = assay: Toxicity in BALB/C nude mouse xenografted with human HEL cells assessed as reduction in body weight at 10 mg/kg, ip bid treated for 21 consecutive days; assay type: organism-based; details: in vivo
Mus musculus [22] = assay: Toxicity in BALB/C nude mouse xenografted with human HEL cells at 10 mg/kg, ip bid treated for 21 consecutive days; assay type: organism-based; details: in vivo
HEL [23] = assay: Antitumor activity against human HEL cells xenografted in BALB/C nude mouse assessed as tumor growth at 10 mg/kg, ip bid treated for 21 consecutive days relative to control; assay type: functional
Mus musculus [24] = assay: In vivo antifungal activity against FLC resistant Candida albicans 0304103 infected in ICR mouse assessed as mouse survival at 5 mg/kg, ip qd up to 20 days (reference value: 4.5 day); assay type: functional, organism-based
HEL [25] = assay: Antiproliferative activity against human HEL cells after 48 hrs in presence of JAK2 inhibitor CYT-387 by CCK-8 assay; assay type: functional, cell-based
K562 [26] = assay: Antiproliferative activity against human K562 cells after 48 hrs in presence of JAK2 inhibitor CYT-387 by CCK-8 assay; assay type: functional, cell-based; details: K562, 48 h
HEL [27] = assay: Antitumor activity in human HEL cells xenografted in SCID mouse assessed as mouse survival time at 10 mg/kg, ip qd; assay type: functional
HEL [28] = assay: Cell cycle arrest in human HEL cells assessed as accumulation at G1 phase at 1 to 5 uM after 48 hrs propidium iodide staining based flow cytometry; assay type: functional
HL-60 [29] = assay: Antiproliferative activity against human HL60 cells after 48 hrs in presence of JAK2 inhibitor CYT-387 by CCK-8 assay; assay type: functional, cell-based; details: HL-60, 48 h
Candida albicans [30] = assay: Antifungal activity against FLC resistant Candida albicans 0304103 at 1 ug/ml up to 24 hrs by checkerboard microdilution method; assay type: functional, organism-based
Mus musculus [31] = assay: In vivo antifungal activity against FLC resistant Candida albicans 0304103 infected in ICR mouse assessed as mouse survival at 1 mg/kg, ip qd up to 20 days (reference value: 4.5 day); assay type: functional
HEL [32] = assay: Cell cycle arrest in human HEL cells assessed as accumulation at G1 phase at 1 to 10 uM after 48 hrs propidium iodide staining based flow cytometry; assay type: functional

Row | SMILES | Activity (Mus musculus [1]) | IC50 (HL-60 [2]) [µM] | MIC50 (Candida albicans [8]) [mg/L] | MST (Mus musculus [9]) [days] | MIC50 (Candida albicans [10]) [mg/L] | MIC50 (Candida albicans [11]) [mg/L] | IC50 (HEL [13]) [µM] | IC50 (K562 [14]) [µM] | Activity (HEL [16]) | inhibition in vivo at 10 mg/kg (HEL [20]) [%] | Activity (Mus musculus [21]) | Activity (Mus musculus [22]) | T/C (HEL [23]) [%] | Activity (Mus musculus [24]) | IC50 (HEL [25]) [µM] | IC50 (K562 [26]) [µM] | Activity (HEL [27]) | IC50 (HL-60 [29]) [µM] | further results
1 | N#CCNC(=O)c1ccc(-c2ccnc(Nc3ccc(N4CCOCC4)cc3)n2)cc1 [MOMELOTINIB] | inactive | 8.3 | > 64 | 5.5 | > 64 | > 64 | 2.3 | 6.5 | inactive | 40.2 | Non-Toxic | Non-Toxic | 68.3 |  |  |  |  |  | fractional inhibitory concentration index (FICI) (Candida albicans [3]): >2; MIC50 (Candida albicans [4]): > 64 mg/L; MIC50 (Candida albicans [5]): 64 mg/L (≈ 154 µM); MIC50 (Candida albicans [6]): > 64 mg/L; MIC50 (Candida albicans [7]): 64 mg/L (≈ 154 µM); Activity (HEL [12]): 25.9%; MIC50 (Candida albicans [15]): > 64 mg/L; MIC50 (Candida albicans [17]): > 64 mg/L; fractional inhibitory concentration index (FICI) (Candida albicans [18]): 2; fractional inhibitory concentration index (FICI) (Candida albicans [19]): >2
2 | CN1CCc2c(c3ccccc3n2Cc2ccc(C(=O)NO)cc2)C1 [TUBASTATIN A] | inactive | 3.75 to 23.9 | > 64 | 4.5 | > 64 | > 64 | 3.75 to 23.9 | 3.75 to 23.9 |  | 18.8 |  |  |  | inactive | 2.54 to 8.55 | 2.54 to 8.55 | inactive | 2.54 to 8.55 | Activity (HEL [28]): Active
3 | OC(Cn1cncn1)(Cn1cncn1)c1ccc(F)cc1F [FLUCONAZOLE] |  |  | > 64 |  | > 64 | > 64 |  |  |  |  |  |  |  |  |  |  |  |  | Activity (Candida albicans [30]): inactive; MST (Mus musculus [31]): 7.5 days
4 | O=C(CCCCCCNC(=O)c1cnc(N(c2ccccc2)c2ccccc2)nc1)NO [RICOLINOSTAT] | inactive | 3.75 to 23.9 | > 64 | 5 | > 64 | > 64 | 3.75 to 23.9 | 3.75 to 23.9 |  | 14.1 |  |  |  | inactive | 2.54 to 8.55 | 2.54 to 8.55 | inactive | 2.54 to 8.55 | Activity (HEL [32]): Active
5 | O=C(CCCCCCC(=O)Nc1ccccc1)NO [VORINOSTAT] | inactive |  |  | 10 |  |  |  | 7.7 | inactive |  | Non-Toxic | Non-Toxic | 87.9 |  |  |  |  |  | 
